Reference: paper PMC4997316, “A ruthenium polypyridyl intercalator stalls DNA replication forks, radiosensitizes human cancer cells and is enhanced by Chk1 inhibition” (Scientific Reports, 2016)

Experiments:
[1] = system: HeLa cells; test: quantification of apoptotic morphology (pyknosis/karyorrhexis); assay type: cell-based, human; conditions: single-agent treatment, 48 h (1 40 μM; CHIR-124 500 nM)
Description: With this in mind, and considering the strong Chk1 activation in response to 1, HeLa cervical cancer cells, which are […][44], were exposed to a combination of 1 plus the Chk1 inhibitor CHIR-124[45] and the impact of co-treatment upon cell viability determined. A non-cytotoxic dose of 500 nM CHIR-124 was used and results were compared to single-agent treatment. […] Minimal enhancement of the anti-proliferative effect of 2 by CHIR-124 was observed (Fig. S15b), in agreement with 2 operating via a Chk1-independent mechanism.
Figure 5 Concurrent treatment of [Ru(dppz)2(PIP)]^2+ plus the Chk1 inhibitor CHIR-124 potentiates synergistic apoptosis in cancer cells. (a) Viability of HeLa (cervical cancer) or hSAEC1-KT (normal epithelial) cells after incubation with 1 in the absence or presence of Chk1 inhibitor CHIR-124 (500 nM) for 48 h constant exposure. (b) Morphological evidence for apoptosis (pyknosis/karyorrhexis, arrows) in HeLa cells treated with 40 μM 1 plus CHIR-124 for 48 h. Scale bars = 20 μm. (c) Quantification of apoptotic cells for experimental conditions as shown in (b). Equivalent results for 2 (40 μM, 48 h) included. Data mean of two independent experiments +/− SD. […] (f) Quantification of γH2AX foci from cells treated as in (e). […] Minimum of 150 cells counted per experiment. […]

[2] = system: MCF7 breast cancer cells; test: MTT proliferation assay, MCF7; assay type: cell-based, human; conditions: 24 h proliferation assay
Description: (§1) (LC3 = Microtubule-associated protein light chain 3) (Fig. 2b, bottom).
(§2) Cells were seeded in 96 well plates at 20,000 cells/well, allowed to proliferate for 24 h before treatment as described in the main text. 0.5 mg ml^−1 MTT (thiazolyl blue tetrazolium bromide) dissolved in serum-free media was added for 60 minutes and the formazan product eluted using acidified isopropanol. The absorbance at 540 nm was quantified by plate reader (reference wavelength 650 nm). The metabolic activity of the cell population was determined as a percentage of a negative (solvent) control.

[3] = system: HeLa cervical cancer cells; test: MTT proliferation assay, HeLa; assay type: cell-based, human; conditions: 24 h proliferation assay
Description: as §1, §2

[4] = system: primary human foreskin fibroblasts (HFF); test: MTT proliferation assay, HFF; assay type: cell-based; conditions: 24 h proliferation assay
Description: as §1, §2

[5] = system: HeLa cells; test: cell-cycle analysis by PI flow cytometry; assay type: cell-based, human; conditions: cisplatin 10 μM, 24 h (Fig. 4c)
Description: Figure 4 [Ru(dppz)2(PIP)]^2+ induces Chk1 checkpoint kinase activation and G1-S cell-cycle arrest. […] See SI for densitometry. (c) Cell-cycle distributions of HeLa cells incubated with DMSO (0.2%), 1 or 2 at the stated concentrations and time. DNA content was quantified using propidium iodide (PI) and analysed by flow cytometry. […] Data mean of three independent experiments +/− SD. […] They are copied as bare numbers, left to right. / The gate numbers in panel c are very small, so 3, 5, 6, 8 and 9 cannot be told apart with certainty. All the values below are best readings. / DMSO: 0.86, 57.4, 22.5, 16.8 uncertain / 1 (40 μM, 3 h): 0.46, 72.7, 13.5, 8.77 uncertain / 1 (40 μM, 8 h): 1.69, 73.2, 15.3, 3.6 uncertain / 1 (40 μM, 24 h): 1.2, 72.9, 15.8, 6.47 uncertain. […] 32.4 is partly overlapped by the peak line.
Cells were washed with PBS and detached using Trypsin. After centrifugation at 1000 rpm for 5 min, cells were fixed in cold 70% ethanol for 30 mins, centrifuged and re-suspended in PBS. Samples were stained using 10 μg/ml propidium iodide (PI) and 200 μg/ml RNAase A for 30 mins before FACS analysis using a Biosciences LSRII Flow Cytometer. A minimum of 10,000 cells were counted for each sample and data were processed using FloJo software. […]

Compound | morphological evidence of apoptosis (pyknosis/karyorrhexis) [1] [%] | IC50 [2] [µM] | IC50 [3] [µM] | IC50 [4] [µM] | cells with sub-G1 DNA content [5] | IC50 ([2]; Homo sapiens, MCF7, 24 h) [µM] | IC50 ([3]; Homo sapiens, HeLa, 24 h) [µM] | IC50 ([4]; Homo sapiens, Fibroblast, 24 h) [µM]
O=c1[nH]c2ccc(Cl)cc2c(N[C@@H]2CN3CCC2CC3)c1-c1nc2ccccc2[nH]1 [CHIR-124, reference compound] | < 5 | – | – | – | – | – | – | –
N.N.[Cl][Pt][Cl] [Cisplatin, cis-diamminedichloroplatinum(II)] | – | 11 | 9 | > 100 | ~ 30% | – | – | –
O=C1c2c(O)ccc(O)c2C(=O)c2c(NCCNCCO)ccc(NCCNCCO)c21 [MX, mitoxantrone] | – | 3.6 | 3 | 4.2 | – | < 5 | < 5 | < 5
